Source: patent publication US10765754B2, “Compositions and methods related to inhibition of respiratory syncytial virus entry” (priority 2015, dated 2020)
Positions of bridges follow the written chain, without caps; N, C: chain ends. Non-standard residues stand in square brackets, D forms with d. Residues, ends and D or L forms follow the SMILES beside them.

Target: T1, RSV-B/IZN45 (Human respiratory syncytial virus B, UniProt O36634)
T1 construct: N-trimer Mimics Synthesized; made in house; host or cells: chemical peptide synthesis
Assay: biochemical
Type: binding
Conditions: synthesized peptide; RSV-B/IZN45; KD determined by SPR
Source text: IZN45 N-trimer mimic comprises the IZ domain, a highly soluble, designed coiled-coil that helps solubilize the N-trimer, along with the C-terminal (bottom) 45 residues of the RSV N-trimer. IZN45 encompasses the full ordered portion of the N-trimer except for three N-terminal residues (removed to maintain a continuous heptad repeat with the IZ domain). The interactions between 35-residue RSV C-peptides, T108 and T118 (Lambert et al., 1996, Proc. Natl. Acad. Sci. USA 93:2186-2191), and IZN45 was examined by surface plasmon resonance (SPR). SPR is a gold standard assay to measure the kinetics and affinity of biological interactions. […] The Biotinylated L-form of RSV target IZN45 was captured onto one lane of a NeutrAvidin coated SPR chip. A mutant version of IZN45 containing four mutated residues along the N-trimer groove designed to disrupt binding (IZN45 Full Mut, negative control) was captured onto a separate lane of the NeutrAvidin chip. T118, corresponding to the C-terminal portion of the RSV F ectodomain, which is known to interact with the RSV N-trimer groove, was flowed over the various surfaces. […] The surfaces were regenerated with a detergent (0.1% SDS) after each injection of analyte. Various concentrations of T118 were measured in duplicate or triplicate injections. D-peptide interactions with IZN45 and IZN45-Full Mut surfaces were also measured using this method.
Peptides from the ‘winning’ phage clones from each library were synthesized as D-peptides. If solubility of the peptides was limited, N- or C-terminal charged residue(s) (e.g., lysine) were attached as necessary as previously described for HIV peptides in Eckert et al., 1999, Cell 99:103-15, incorporated by reference in its entirety. Binding affinity and kinetics of the D-peptide inhibitors to the IZN45 and IZN45 mutants was characterized by SPR (Biacore 3000), using methods as described in Welch et al., 2007, Proc. Natl. Acad. Sci. USA 104:16828-33, incorporated by reference in its entirety.

T1 sequence (O36634 163-207, added parts left off): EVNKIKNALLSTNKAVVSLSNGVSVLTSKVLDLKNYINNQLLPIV

| Compound | Kd |
| --- | --- |
| CC[C@@H](C)[C@H]1NC(=O)[C@@H](CCCCN)NC(=O)[C@H](NC(=O)[C@@H](C)NC(=O)CNC(C)=O)CSSC[C@H](C(=O)N[C@H](C)C(=O)N[C@H](C)C(=O)NCC(=O)NCC(N)=O)NC(=O)[C@@H](CC(=O)O)NC(=O)[C@@H](Cc2c[nH]cn2)NC(=O)[C@@H](Cc2c[nH]c3ccccc23)NC(=O)[C@@H](Cc2c[nH]cn2)NC(=O)[C@@H](Cc2ccccc2)NC(=O)[C@@H](CC(C)C)NC(=O)[C@@H](CC(=O)O)NC(=O)[C@@H](Cc2c[nH]cn2)NC1=O [Ac-CX10C-119-GG] (Ac-G[dA][dC][dK][dI][dH][dD][dL][dF][dH][dW][dH][dD][dC][dA][dA]GG-NH2; disulfide 3-14) | 30 µM |
| CC[C@@H](C)[C@H]1NC(=O)[C@@H](CCCCN)NC(=O)[C@H](NC(=O)[C@@H](C)NC(=O)CNC(C)=O)CSSC[C@H](C(=O)N[C@H](C)C(=O)N[C@H](C)C(N)=O)NC(=O)[C@@H](CC(=O)O)NC(=O)[C@@H](Cc2c[nH]cn2)NC(=O)[C@@H](Cc2c[nH]c3ccccc23)NC(=O)[C@@H](Cc2c[nH]cn2)NC(=O)[C@@H](Cc2ccccc2)NC(=O)[C@@H](CC(C)C)NC(=O)[C@@H](CC(=O)O)NC(=O)[C@@H](Cc2c[nH]cn2)NC1=O [Ac-CX10C-119] (Ac-G[dA][dC][dK][dI][dH][dD][dL][dF][dH][dW][dH][dD][dC][dA][dA]-NH2; disulfide 3-14) | 280 µM |
| CC[C@@H](C)[C@@H](NC(C)=O)C(=O)N[C@H](CO)C(=O)N[C@H](CC(C)C)C(=O)N1CCC[C@@H]1C(=O)N[C@@H](C(=O)N1CCC[C@@H]1C(=O)N[C@@H](C(=O)N[C@H](Cc1c[nH]c2ccccc12)C(=O)N[C@H](Cc1c[nH]c2ccccc12)C(=O)N1CCC[C@@H]1C(=O)N[C@H](CO)C(=O)N[C@@H](C(=O)NCC(=O)NCC(N)=O)[C@H](C)O)[C@H](C)O)[C@H](C)O [Ac-X12-45-GG] (Ac-[dI][dS][dL][dP][dT][dP][dT][dW][dW][dP][dS][dT]GG-NH2) | 25 µM |
| CC[C@@H](C)[C@@H](NC(C)=O)C(=O)N[C@H](CO)C(=O)N[C@H](CC(C)C)C(=O)N1CCC[C@@H]1C(=O)N[C@@H](C(=O)N1CCC[C@@H]1C(=O)N[C@@H](C(=O)N[C@H](Cc1c[nH]c2ccccc12)C(=O)N[C@H](Cc1c[nH]c2ccccc12)C(=O)N1CCC[C@@H]1C(=O)N[C@H](CO)C(=O)N[C@@H](C(=O)NCC(=O)N[C@H](CCCCN)C(N)=O)[C@H](C)O)[C@H](C)O)[C@H](C)O [Ac-X12-45-GK] (Ac-[dI][dS][dL][dP][dT][dP][dT][dW][dW][dP][dS][dT]G[dK]-NH2) | 23 µM |
| CC[C@@H](C)[C@@H](NC(=O)[C@H](NC(=O)[C@@H](CCCCN)NC(=O)[C@@H](CO)NC(C)=O)C(C)C)C(=O)N[C@H](CC(C)C)C(=O)N1CCC[C@@H]1C(=O)N[C@H](CCC(=O)O)C(=O)N1CCC[C@@H]1C(=O)N[C@H](Cc1ccccc1)C(=O)N[C@H](Cc1c[nH]c2ccccc12)C(=O)N[C@H](Cc1c[nH]c2ccccc12)C(=O)N1CCC[C@@H]1C(=O)NCC(=O)NCC(N)=O [Ac-X12-47-GG] (Ac-[dS][dK][dV][dI][dL][dP][dE][dP][dF][dW][dW][dP]GG-NH2) | 15 µM |
| CSCC[C@@H](NC(=O)[C@@H](Cc1c[nH]c2ccccc12)NC(=O)[C@@H](Cc1c[nH]c2ccccc12)NC(=O)[C@@H](Cc1ccc(O)cc1)NC(=O)[C@@H](CCCCN)NC(=O)[C@@H](CC(C)C)NC(=O)[C@@H](CO)NC(C)=O)C(=O)N[C@H](CCC(=O)O)C(=O)N[C@H](CCC(=O)O)C(=O)N[C@H](CC(C)C)C(=O)N1CCC[C@@H]1C(=O)N[C@H](CC(C)C)C(=O)N1CCC[C@@H]1C(=O)N[C@H](CCCCN)C(=O)N[C@H](Cc1c[nH]c2ccccc12)C(=O)N[C@H](Cc1c[nH]c2ccccc12)C(=O)NCC(=O)NCC(N)=O [Ac-X16-18-GG] (Ac-[dS][dL][dK][dY][dW][dW][dM][dE][dE][dL][dP][dL][dP][dK][dW][dW]GG-NH2) | 5.4 µM |
| CSCC[C@@H](NC(=O)[C@@H](Cc1c[nH]c2ccccc12)NC(=O)[C@@H](Cc1c[nH]c2ccccc12)NC(=O)[C@@H](Cc1ccc(O)cc1)NC(=O)[C@@H](CCCCN)NC(=O)[C@@H](CC(C)C)NC(=O)[C@@H](CO)NC(C)=O)C(=O)N[C@H](CCC(=O)O)C(=O)N[C@H](CCC(=O)O)C(=O)N[C@H](CC(C)C)C(=O)N1CCC[C@@H]1C(=O)N[C@H](CC(C)C)C(=O)N1CCC[C@@H]1C(=O)N[C@H](CCCCN)C(=O)N[C@H](Cc1c[nH]c2ccccc12)C(=O)N[C@H](Cc1c[nH]c2ccccc12)C(N)=O [Ac-X16-18] (Ac-[dS][dL][dK][dY][dW][dW][dM][dE][dE][dL][dP][dL][dP][dK][dW][dW]-NH2) | 11 µM |
| CC(C)C[C@H]1NC(=O)[C@@H](CC(=O)O)NC(=O)[C@@H](Cc2c[nH]c3ccccc23)NC(=O)[C@@H]([C@H](C)O)NC(=O)[C@@H](Cc2c[nH]cn2)NC(=O)[C@H](NC(=O)[C@@H](C)NC(=O)CN)CSSC[C@H](C(=O)N[C@H](C)C(=O)N[C@H](C)C(=O)NCC(=O)N[C@H](CCCCN)C(N)=O)NC(=O)[C@@H](C(C)C)NC(=O)[C@@H](CC(=O)O)NC(=O)[C@@H](CC(C)C)NC(=O)[C@@H](Cc2c[nH]cn2)NC(=O)[C@@H](CC(N)=O)NC1=O [CX10C-86-GK] (H-G[dA][dC][dH][dT][dW][dD][dL][dN][dH][dL][dD][dV][dC][dA][dA]G[dK]-NH2; disulfide 3-14) | 350 µM |
| CC[C@@H](C)[C@H]1NC(=O)[C@@H](CCCCN)NC(=O)[C@H](NC(=O)[C@@H](C)NC(=O)CN)CSSC[C@H](C(=O)N[C@H](C)C(=O)N[C@H](C)C(=O)NCC(=O)NCC(N)=O)NC(=O)[C@@H](CC(=O)O)NC(=O)[C@@H](Cc2c[nH]cn2)NC(=O)[C@@H](Cc2c[nH]c3ccccc23)NC(=O)[C@@H](Cc2c[nH]cn2)NC(=O)[C@@H](Cc2ccccc2)NC(=O)[C@@H](CC(C)C)NC(=O)[C@@H](CC(=O)O)NC(=O)[C@@H](Cc2c[nH]cn2)NC1=O [CX10C-119-GG] (H-G[dA][dC][dK][dI][dH][dD][dL][dF][dH][dW][dH][dD][dC][dA][dA]GG-NH2; disulfide 3-14) | 130 µM |
| CC[C@@H](C)[C@H]1NC(=O)[C@@H](CCCCN)NC(=O)[C@H](NC(=O)[C@@H](C)NC(=O)CN)CSSC[C@H](C(=O)N[C@H](C)C(=O)N[C@H](C)C(N)=O)NC(=O)[C@@H](CC(=O)O)NC(=O)[C@@H](Cc2c[nH]cn2)NC(=O)[C@@H](Cc2c[nH]c3ccccc23)NC(=O)[C@@H](Cc2c[nH]cn2)NC(=O)[C@@H](Cc2ccccc2)NC(=O)[C@@H](CC(C)C)NC(=O)[C@@H](CC(=O)O)NC(=O)[C@@H](Cc2c[nH]cn2)NC1=O [CX10C-119] (H-G[dA][dC][dK][dI][dH][dD][dL][dF][dH][dW][dH][dD][dC][dA][dA]-NH2; disulfide 3-14) | 100 µM |
| CC[C@@H](C)[C@@H](N)C(=O)N[C@H](CO)C(=O)N[C@H](CC(C)C)C(=O)N1CCC[C@@H]1C(=O)N[C@@H](C(=O)N1CCC[C@@H]1C(=O)N[C@@H](C(=O)N[C@H](Cc1c[nH]c2ccccc12)C(=O)N[C@H](Cc1c[nH]c2ccccc12)C(=O)N1CCC[C@@H]1C(=O)N[C@H](CO)C(=O)N[C@@H](C(=O)NCC(=O)NCC(N)=O)[C@H](C)O)[C@H](C)O)[C@H](C)O [X12-45-GG] (H-[dI][dS][dL][dP][dT][dP][dT][dW][dW][dP][dS][dT]GG-NH2) | 11 µM |
